Data published in publication PMC3991570, “A Novel Highly Potent Autotaxin/ENPP2 Inhibitor Produces Prolonged Decreases in Plasma Lysophosphatidic Acid Formation In Vivo and Regulates Urethral Tension” (PLoS ONE, 2014).
pIC50: −log10 of the molar value. Counter-ions that a name gives are not always drawn.

Tests used:
[1] = biological target: T1, recombinant human ATX/ENPP2 (Homo sapiens, UniProt Q13822); experiment: Choline release assay, 16:0-LPC substrate, overnight (15 h) incubation; assay type: biochemical; details: about 15 h incubation, read-out: In vitro IC50, Recombinant human ATX/ENPP2, Choline (O/N)
T1 construct: (His)6 (C); made in house; host or cells: baculovirus AcNPV; virus made in Sf9, protein expressed in expresSF+ insect cells, from culture supernatant
Protocol: A series of reaction mixtures containing different concentrations of the inhibitors were also tested in parallel using an overnight incubation. First, the aqueous solution of recombinant ATX/ENPP2 (final concentration 2 µg/ml) or plasma samples from various animal species (final concentration 40%) was added to the reaction mixture containing different concentrations of ATX/ENPP2 inhibitors, 1 mM 16:0-LPC, and 1% DMSO. Then, each mixture was incubated at 37°C for 15 h (primary reaction). Samples of each mixture were subjected to the secondary reaction with 10 volumes of 300 µM TOOS in 100 mM Tris-HCl solution (pH 8.5), 500 µM 4-aminoantipyrine, 600 mU/ml horseradish peroxidase, 3 U/ml choline oxidase, and 5 mM CaCl2, at 37°C for 20 min (secondary reaction). […] Measurement points of choline production were plotted against the concentration of the inhibitor and the theoretical curve to obtain the IC50 value of the inhibitor for LysoPLD activity was obtained using the Activity Base version 7.1.0.39 software from ID Business Solutions Ltd.

[2] = biological target: T1, recombinant human ATX/ENPP2; experiment: FS-3 assay of LysoPLD activity (2 h); assay type: biochemical; details: synthetic fluorescent substrate FS-3, 2 h; read-out: In vitro IC50, Recombinant human ATX/ENPP2, FS-3 (2 h)
Protocol: Recombinant ATX/ENPP2 protein (2 µg/ml) and various concentrations of the inhibitors were mixed and incubated at 37°C for 2 h in 100 mM Tris-HCl buffer (pH 8.0) containing 1%DMSO, 500 mM NaCl, 5 mM MgCl2, and 0.05% Triton X-100, in the presence of a fluorescent substrate FS-3 (1 µM). After incubation, fluorescence at 520 nm with excitation at 494 nm was measured.
(§1) Measurement points of choline production were plotted against the concentration of the inhibitor and the theoretical curve to obtain the IC50 value of the inhibitor for LysoPLD activity was obtained using the Activity Base version 7.1.0.39 software from ID Business Solutions Ltd.

[3] = biological target: T1, recombinant human ATX/ENPP2; experiment: Choline release assay, 16:0-LPC substrate, 30 min incubation; assay type: biochemical; details: read-out: In vitro IC50, Recombinant human ATX/ENPP2, Choline (30 min)
Protocol: In the choline release assay, a series of reaction mixtures containing different concentrations of the inhibitors were tested in parallel. Recombinant ATX/ENPP2 was dissolved in 100 mM Tris-HCl buffer (pH 9.0) containing 500 mM NaCl, 5 mM MgCl2 and 0.05% Triton X-100. First, the aqueous solution of recombinant ATX/ENPP2 (final concentration 2 µg/ml) was added to the reaction mixture containing different concentrations of the inhibitors, 1 mM 16:0-LPC, and DMSO 1%. Then, each mixture was incubated at 37°C for 30 min (primary reaction). A samples of each reaction mixture was subjected to the secondary incubation at 37°C for 30 min with 10 times the volume of 100 µM Amplex Red in 50 mM Tris-HCl buffer (pH 8.0), 1 U/ml horseradish peroxidase, 150 mU/ml choline oxidase and 5 mM CaCl2,. Fluorescence at 590 nm was measured with excitation at 544 nm and the amount of choline released in each reaction mixture was quantified based on a calibration curve created from a choline chloride standard.
as §1

[4] = tested on: plasma LPA; set-up: method as in PMID 20392816; details: at 24 h after administration; cited from earlier work
[5] = tested on: urethane-anesthetized rats; experiment: Intraurethral pressure (IUP) in urethane-anesthetized rats; assay type: in vivo, rat
Protocol: Male Crl∶CD(SD) rats (7–8 weeks old) were anesthetized by intraperitoneal administration of urethane at a dose of 1.5 g/5 ml/kg. An arterial catheter (JMS cut-down tube; C3, JMS, Japan) was inserted into the common carotid artery to monitor blood pressure. After the abdomen was opened, another catheter (inner diameter, 0.9 mm; outer diameter, 1.5 mm; Shin-Etsu Polymer, Japan) was inserted into the duodenum and held in place with a suture thread. The abdomen was then cut along the median line and the urethra was ligated in the proximity of the pubic bone. For measurement of intraurethral pressure (IUP), a urethral catheter (JMS cut-down tube; C3, JMS Inc., Japan) was inserted from the top side of the bladder through the urethra and held in place by ligation at the bladder neck. Finally, both the arterial catheter and urethral catheter were connected to a pressure transducer (Nihon Kohden, Japan), and the rat was placed on a warm mat (37°C). Blood pressure and IUP were measured by a recorder (Graphtec, Japan) using a torsion-pressure amplifier (Nihon Kohden, Japan).
ONO-8430506 was dissolved in an aqueous solution containing 1.1 times the equivalent amount of NaOH. After confirming stabilization of IUP, rats received either the inhibitor or tamsulosin at a dose of 2 ml/kg in an aqueous solution through the duodenal catheter. IUP and blood pressure were measured continuously during the 20-min after administration of either the inhibitor or tamsulosin. At the end of the 20-min period, heparinized blood was collected from the jugular vein of the rat to prepare a plasma sample. Rats were then euthanized by intravenous administration of 1 ml of pentobarbital (Somunopentyl, Kyoritsu Seiyaku Corporation). Postmortem IUP was measured until the lowest IUP value was reached and stabilized. The maximum percent decreases relative to the difference between baseline IUP and postmortem IUP was calculated to measure the change from baseline in IUP during the 20-min after drug administration.

[6] = tested on: urethane-anesthetized rats; experiment: Mean blood pressure in urethane-anesthetized rats; assay type: in vivo, rat; details: intraduodenal, up to 3 mg/kg (tamsulosin at the same dose range)
Protocol: Male Crl∶CD(SD) rats (7–8 weeks old) were anesthetized by intraperitoneal administration of urethane at a dose of 1.5 g/5 ml/kg. An arterial catheter (JMS cut-down tube; C3, JMS, Japan) was inserted into the common carotid artery to monitor blood pressure. After the abdomen was opened, another catheter (inner diameter, 0.9 mm; outer diameter, 1.5 mm; Shin-Etsu Polymer, Japan) was inserted into the duodenum and held in place with a suture thread. The abdomen was then cut along the median line and the urethra was ligated in the proximity of the pubic bone. […] Blood pressure and IUP were measured by a recorder (Graphtec, Japan) using a torsion-pressure amplifier (Nihon Kohden, Japan).
ONO-8430506 was dissolved in an aqueous solution containing 1.1 times the equivalent amount of NaOH. […] IUP and blood pressure were measured continuously during the 20-min after administration of either the inhibitor or tamsulosin. […] Postmortem IUP was measured until the lowest IUP value was reached and stabilized. The maximum percent decreases relative to the difference between baseline IUP and postmortem IUP was calculated to measure the change from baseline in IUP during the 20-min after drug administration.

[7] = tested on: isolated rat urethra; experiment: Contraction of isolated rat urethra (Magnus apparatus); details: 100 nM to 30 µM added cumulatively
Protocol: Krebs-Henseleit buffer (112 mM NaCl, 5.9 mM KCl, 2.0 mM CaCl2, 1.2 mM MgCl2, 1.2 mM NaH2PO4, 25.0 mM NaHCO3 and 11.5 mM glucose) was prepared and aerated with 95%O2+5%CO2. 8-week old male CD (SD) IGS rats (Charles River Laboratories Japan, Inc.) were decapitated and exsanguinated. The urethra was excised and immediately immersed in ice-cooled Krebs-Henseleit buffer. The excised urethra was cut open and flattened using ophthalmologic scissors. The opened and flattened urethra was cut along the circular muscle into ‘ring-shaped’ strips 2–3 mm in width×3–4 mm in length using a razor. One ‘ring-shaped’ urethral specimen was prepared for each male rat.
Each prepared urethral specimen was hung inside a 5-ml Magnus tube filled with Krebs-Henseleit buffer (30°C). A resting tension of approximately 0.5 g was applied to the specimen for 60 min until it was stabilized. Thereafter, contraction motions of the specimen were recorded on a linear recorder (Model WR3320, Graphtec Corp.) after being amplified by a torsion-pressure amplifier (Models AP-641G and AP-601G, Nihon Kohden Corporation) and a force displacement pick-up transducer (Model TB-611T, Nihon Kohden Corporation). […] Phenylephrine (10 nM to 1 mM, Sigma-Aldrich) or 18:3-LPA (100 nM to 30 µM) was cumulatively added to the medium and the contractile force of each urethral specimen was measured.

| Compound | pIC50 [1] | pIC50 [2] | pIC50 [3] | other results |
| --- | --- | --- | --- | --- |
| O=C1S/C(=C\c2ccc(OCc3cccc(B(O)O)c3)cc2)C(=O)N1Cc1ccc(F)cc1 [HA130] | 6.24 | 6.92 | 7.37 | – |
| O=C(CCN1CCN(C(=O)OCc2cc(Cl)cc(Cl)c2)CC1)c1ccc2[nH]c(=O)oc2c1 [PF-8380] | – | – | – | plasma LPA level after oral administration [4]: returned to the normal baseline level |
| CCCCCCCCCCCCCC(=O)Nc1ccc(CP(=O)(O)O)cc1 [S32826] | < 5.00 | 7.77 | 7.18 | – |
| CCOc1ccccc1OCCN[C@H](C)Cc1ccc(OC)c(S(N)(=O)=O)c1 [tamsulosin, tamsulosin hydrochloride] | – | – | – | decrease in IUP ([5]; 0.3 mg/kg intraduodenal, maximum percent decrease during 20 min): 28%; dose of maximum effect on IUP ([5]; intraduodenal): 0.3 mg/kg; doses at which IUP decreased ([5]; intraduodenal): higher than 0.03 mg/kg; effect on mean blood pressure (MBP) [6]: drastically decreased |
| linolenoyl-lysophosphatidic acid [18:3-LPA] | – | – | – | contractile effect in isolated rat urethra [7]: comparable to phenylephrine |
